By Dmax is commonly meant the largest share of the target that was removed. High values mean deep degradation, low ones shallow degradation. The term DC50 denotes the midpoint of the concentration-degradation curve.

The target of one test is BTK (Homo sapiens, UniProt Q06187). Put plainly: Degradation of BTK protein in Namalwa cells (Western blot; DC50, Dmax). To be noted: for DC50: BTK degradation, cell line not given. For orientation: Immunoblotting shows a protein as a band on a membrane.
Another test deals with Mino cells. The experiment in a line: Antiproliferative effect, MTS cell viability assay, Mino cells. Type of test: cell-based. As to conditions: Homo sapiens, MINO, Mino mantle cell lymphoma cells; read-out: IC50 (anti-proliferation) Mino cells. An outline of the steps: (§1)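 Steps: seed B-cell lymphoma line; add compound at 0, 0.001, 0.01, 0.1, 1 or 10 μM; incubate 72 h; add MTS and read reduced tetrazolium (formazan) absorbance at 490 nm.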
In general terms: Tetrazolium dyes change colour on reduction, which living cells bring about.

The subject of another test is JeKo-1 cells. The experiment in a line: Antiproliferative effect, MTS cell viability assay, JeKo-1 cells. The format is cell-based. To be noted: Homo sapiens; JeKo-1 mantle cell lymphoma cells; read-out: IC50 (anti-proliferation) JeKO-1 cells. The method in brief:
as §1

Bounds are passed on as bounds.

BTK, sequence (Q06187 whole entry): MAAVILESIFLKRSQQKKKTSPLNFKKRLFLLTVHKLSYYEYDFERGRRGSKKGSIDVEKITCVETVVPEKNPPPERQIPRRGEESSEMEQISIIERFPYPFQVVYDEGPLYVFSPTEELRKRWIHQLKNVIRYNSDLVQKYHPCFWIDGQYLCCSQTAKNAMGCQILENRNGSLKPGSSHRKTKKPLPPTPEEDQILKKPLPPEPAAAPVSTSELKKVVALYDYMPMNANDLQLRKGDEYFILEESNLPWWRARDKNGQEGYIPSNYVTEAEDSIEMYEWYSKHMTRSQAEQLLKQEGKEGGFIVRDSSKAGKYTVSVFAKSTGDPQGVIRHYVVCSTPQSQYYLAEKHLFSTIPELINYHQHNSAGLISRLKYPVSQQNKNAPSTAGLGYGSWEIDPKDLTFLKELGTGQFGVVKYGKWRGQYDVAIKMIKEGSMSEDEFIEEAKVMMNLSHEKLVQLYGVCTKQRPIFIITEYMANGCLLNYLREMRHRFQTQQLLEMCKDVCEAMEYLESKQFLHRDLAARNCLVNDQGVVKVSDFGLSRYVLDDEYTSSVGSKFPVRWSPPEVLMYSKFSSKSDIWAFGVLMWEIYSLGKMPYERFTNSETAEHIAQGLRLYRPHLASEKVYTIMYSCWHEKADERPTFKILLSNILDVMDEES
Procedure for BTK: Namalwa, JeKo-1, or Mino cells were plated in 24-well plates at a density of 10^5 cells/well. Media containing various drug concentrations were added on the day following plating (day 0) and allowed to incubate for 24 hours for Western blot. Media with the tested compound was changed every other day. […] Media were removed and dishes were washed with 1×DPBS. Lysates were made by adding 150 μL of complete lysis solution and scraping cells into a 1.5 mL microcentrifuge tube. Lysates were placed on a rotisserie at 4° C. for 30 min and then spun at 4° C. at 12000 rcf for 10 min. Supernatants were assayed for protein content, snap-frozen, and stored a −80° C. if not run immediately. Then 50 μg of protein was subjected to Western blot protocol. […] They were then imaged on a LICOR infrared scanner.

`NC(=O)c1c(-c2ccc(Oc3ccccc3)cc2)nn2c1NCCC2C1CCN(C(=O)N2CCC(CN3CCN(c4ccc5c(c4)C(=O)N(C4CCC(=O)NC4=O)C5=O)CC3)CC2)CC1` (centres unmarked) [Compound 275, 7-(1-(4-((4-(2-(2,6-dioxopiperidin-3-yl)-1,3-dioxoisoindolin-5-yl)piperazin-1-yl)methyl)piperidine-1-carbonyl)piperidin-4-yl)-2-(4-phenoxyphenyl)-4,5,6,7-tetrahydropyrazolo[1,5-a]pyrimidine-3-carboxamide]: the greatest degradation seen (Dmax) at BTK was above 90%. On BTK, this molecule displayed a 50% degradation concentration (DC50) below 0.01 µM. Moreover, the IC50 in the test with Mino cells and in the test with JeKo-1 cells was 1 to 10 µM throughout.

On to `NC(=O)c1c(-c2ccc(Oc3ccccc3)cc2)nn2c1NCCC2C1CCN(C(=O)N2CCC(CN3CCN(c4ccc5c(c4)CN(C4CCC(=O)NC4=O)C5=O)CC3)CC2)CC1` (centres unmarked) [Compound 276, 7-(1-(4-((4-(2-(2,6-dioxopiperidin-3-yl)-1-oxoisoindolin-5-yl)piperazin-1-yl)methyl)piperidine-1-carbonyl)piperidin-4-yl)-2-(4-phenoxyphenyl)-4,5,6,7-tetrahydropyrazolo[1,5-a]pyrimidine-3-carboxamide], for which the Dmax at BTK was above 90%. Moreover, the DC50 at BTK was below 0.01 µM. The IC50 in the test with Mino cells and in the test on JeKo-1 cells was below 1 µM in each case.

As to `NC(=O)c1c(-c2ccc(Oc3ccccc3)cc2)nn2c1NCCC2C1CCN(C(=O)N2CCC(CC3CCN(c4ccc5c(c4)C(=O)N(C4CCC(=O)NC4=O)C5=O)CC3)CC2)CC1` (centres unmarked) [Compound 277, 7-(1-(4-((1-(2-(2,6-dioxopiperidin-3-yl)-1,3-dioxoisoindolin-5-yl)piperidin-4-yl)methyl)piperidine-1-carbonyl)piperidin-4-yl)-2-(4-phenoxyphenyl)-4,5,6,7-tetrahydropyrazolo[1,5-a]pyrimidine-3-carboxamide], the Dmax at BTK is above 90%. The molecule further displayed a DC50 at BTK below 0.01 µM. For the same molecule, the figures for the IC50 in the test with Mino cells and with JeKo-1 cells were below 1 µM and 1 to 10 µM, respectively.

Consider `NC(=O)c1c(-c2ccc(Oc3ccccc3)cc2)nn2c1NCCC2C1CCN(C(=O)N2CCC(CC3CCN(c4ccc5c(c4)CN(C4CCC(=O)NC4=O)C5=O)CC3)CC2)CC1` (centres unmarked) [Compound 278, 7-(1-(4-((1-(2-(2,6-dioxopiperidin-3-yl)-1-oxoisoindolin-5-yl)piperidin-4-yl)methyl)piperidine-1-carbonyl)piperidin-4-yl)-2-(4-phenoxyphenyl)-4,5,6,7-tetrahydropyrazolo[1,5-a]pyrimidine-3-carboxamide], for which the Dmax at BTK was above 90%. This molecule also displayed a DC50 at BTK below 0.01 µM. In addition, the IC50 was below 1 µM with Mino cells and 1 to 10 µM with JeKo-1 cells.

Consider `NC(=O)c1c(-c2ccc(Oc3ccccc3)cc2)nn2c1NCCC2C1CCN(C(=O)N2CCC(CN3CCC(c4ccc5c(c4)C(=O)N(C4CCC(=O)NC4=O)C5=O)CC3)CC2)CC1` (centres unmarked) [Compound 279, 7-(1-(4-((4-(2-(2,6-dioxopiperidin-3-yl)-1,3-dioxoisoindolin-5-yl)piperidin-1-yl)methyl)piperidine-1-carbonyl)piperidin-4-yl)-2-(4-phenoxyphenyl)-4,5,6,7-tetrahydropyrazolo[1,5-a]pyrimidine-3-carboxamide], for which the Dmax on BTK was above 90%. The molecule also had a DC50 at BTK of 0.01 to 0.05 µM. Further, the IC50 with Mino cells and in the test on JeKo-1 cells was 1 to 10 µM throughout.

At BTK, `NC(=O)c1c(-c2ccc(Oc3ccccc3)cc2)nn2c1NCCC2C1CCN(C(=O)N2CCC(CN3CCC(c4ccc5c(c4)CN(C4CCC(=O)NC4=O)C5=O)CC3)CC2)CC1` (centres unmarked) [Compound 280, 7-(1-(4-((4-(2-(2,6-dioxopiperidin-3-yl)-1-oxoisoindolin-5-yl)piperidin-1-yl)methyl)piperidine-1-carbonyl)piperidin-4-yl)-2-(4-phenoxyphenyl)-4,5,6,7-tetrahydropyrazolo[1,5-a]pyrimidine-3-carboxamide] had a Dmax above 90% and a DC50 below 0.01 µM. Also, the IC50 in the test with Mino cells lay within 1 to 10 µM. The IC50 in the test on JeKo-1 cells lay within 1 to 10 µM.

At BTK, `NC(=O)c1c(-c2ccc(Oc3ccccc3)cc2)nn2c1NCCC2C1CCN(C(=O)N2CCN(CCN3CCN(c4ccc5c(c4)C(=O)N(C4CCC(=O)NC4=O)C5=O)CC3)CC2)CC1` (centres unmarked) [Compound 281, 7-(1-(4-(2-(4-(2-(2,6-dioxopiperidin-3-yl)-1,3-dioxoisoindolin-5-yl)piperazin-1-yl)ethyl)piperazine-1-carbonyl)piperidin-4-yl)-2-(4-phenoxyphenyl)-4,5,6,7-tetrahydropyrazolo[1,5-a]pyrimidine-3-carboxamide] showed a Dmax above 90% and a DC50 of 0.01 to 0.05 µM. Also, the IC50 in the test on Mino cells fell in the range of 1 to 10 µM. The IC50 in the test with JeKo-1 cells lay in the range of 1 to 10 µM.

At BTK, `NC(=O)c1c(-c2ccc(Oc3ccccc3)cc2)nn2c1NCCC2C1CCN(C(=O)N2CCN(CCN3CCN(c4ccc5c(c4)CN(C4CCC(=O)NC4=O)C5=O)CC3)CC2)CC1` (centres unmarked) [Compound 282, 7-(1-(4-(2-(4-(2-(2,6-dioxopiperidin-3-yl)-1-oxoisoindolin-5-yl)piperazin-1-yl)ethyl)piperazine-1-carbonyl)piperidin-4-yl)-2-(4-phenoxyphenyl)-4,5,6,7-tetrahydropyrazolo[1,5-a]pyrimidine-3-carboxamide] had a Dmax above 90% and a half-maximal degradation concentration (DC50) of 0.01 to 0.05 µM. The IC50 with Mino cells was 1 to 10 µM. For the same molecule, the IC50 in the test on JeKo-1 cells is above 10 µM.

At BTK, `NC(=O)c1c(-c2ccc(Oc3ccccc3)cc2)nn2c1NCCC2C1CCN(C(=O)N2CCN(CCC3CCN(c4ccc5c(c4)C(=O)N(C4CCC(=O)NC4=O)C5=O)CC3)CC2)CC1` (centres unmarked) [Compound 283, 7-(1-(4-(2-(1-(2-(2,6-dioxopiperidin-3-yl)-1,3-dioxoisoindolin-5-yl)piperidin-4-yl)ethyl)piperazine-1-carbonyl)piperidin-4-yl)-2-(4-phenoxyphenyl)-4,5,6,7-tetrahydropyrazolo[1,5-a]pyrimidine-3-carboxamide] returned a Dmax above 75% and a DC50 of 0.01 to 0.05 µM. For the same molecule, in the test on Mino cells, the IC50 was 1 to 10 µM. Also, the IC50 in the test with JeKo-1 cells was above 10 µM.

At BTK, `NC(=O)c1c(-c2ccc(Oc3ccccc3)cc2)nn2c1NCCC2C1CCN(C(=O)N2CCN(CCC3CCN(c4ccc5c(c4)CN(C4CCC(=O)NC4=O)C5=O)CC3)CC2)CC1` (centres unmarked) [Compound 284, 7-(1-(4-(2-(1-(2-(2,6-dioxopiperidin-3-yl)-1-oxoisoindolin-5-yl)piperidin-4-yl)ethyl)piperazine-1-carbonyl)piperidin-4-yl)-2-(4-phenoxyphenyl)-4,5,6,7-tetrahydropyrazolo[1,5-a]pyrimidine-3-carboxamide] had a Dmax above 75% and a DC50 of 0.01 to 0.05 µM. Moreover, the IC50 with Mino cells was in the range of 1 to 10 µM. Further, in the test on JeKo-1 cells, the IC50 was in the range of 1 to 10 µM.

Regarding `NC(=O)c1c(-c2ccc(Oc3ccccc3)cc2)nn2c1NCCC2C1CCN(C(=O)N2CCC(CCN3CCC(c4ccc5c(c4)C(=O)N(C4CCC(=O)NC4=O)C5=O)CC3)CC2)CC1` (centres unmarked) [Compound 285, 7-(1-(4-(2-(4-(2-(2,6-dioxopiperidin-3-yl)-1,3-dioxoisoindolin-5-yl)piperidin-1-yl)ethyl)piperidine-1-carbonyl)piperidin-4-yl)-2-(4-phenoxyphenyl)-4,5,6,7-tetrahydropyrazolo[1,5-a]pyrimidine-3-carboxamide], the Dmax at BTK is above 75%. At BTK, this molecule came in with a DC50 above 0.05 µM. Further, the IC50 in the test on Mino cells and in the test on JeKo-1 cells was 1 to 10 µM each time.

These data come from US12139492B2 (Endotarget Inc., priority 2021, dated 2024).
